# Laboratory results published in publication PMC1262763, “Evolutionary selection across the nuclear hormone receptor superfamily with a focus on the NR1I subfamily (vitamin D, pregnane X, and constitutive androstane receptors)” (Nuclear Receptor, 2005).
# Structures can show the parent of a compound that is named as a salt.
# What was measured:
# [1] = molecular target: T1, human PXR (Homo sapiens, UniProt O75469); experiment: luciferase reporter transactivation, HepG2-NTCP cells; format: cell-based; conditions: concentration-response curve, normalized to […] rifampicin
# T1 construct: gene NR1I2; full-length receptor (DBD and LBD), transfected in HepG2-NTCP cells with CYP3A4-PXRE-Luc reporter
# T1 sequence (O75469 1-434): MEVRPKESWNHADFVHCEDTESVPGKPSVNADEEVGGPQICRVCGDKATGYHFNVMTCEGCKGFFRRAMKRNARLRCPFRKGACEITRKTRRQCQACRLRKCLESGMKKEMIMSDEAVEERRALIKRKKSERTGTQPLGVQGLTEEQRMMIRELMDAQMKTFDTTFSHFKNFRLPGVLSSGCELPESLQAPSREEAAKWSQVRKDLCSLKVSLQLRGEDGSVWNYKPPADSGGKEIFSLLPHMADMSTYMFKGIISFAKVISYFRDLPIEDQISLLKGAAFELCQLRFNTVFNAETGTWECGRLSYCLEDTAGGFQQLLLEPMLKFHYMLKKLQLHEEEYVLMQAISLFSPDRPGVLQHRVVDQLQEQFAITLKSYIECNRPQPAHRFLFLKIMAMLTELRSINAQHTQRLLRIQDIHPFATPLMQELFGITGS
# [2] = molecular target: human VDR (Homo sapiens, UniProt P11473); conditions: maximal activator […] calcitriol
# Sequence of human VDR (P11473 whole entry, the tested form may be a part): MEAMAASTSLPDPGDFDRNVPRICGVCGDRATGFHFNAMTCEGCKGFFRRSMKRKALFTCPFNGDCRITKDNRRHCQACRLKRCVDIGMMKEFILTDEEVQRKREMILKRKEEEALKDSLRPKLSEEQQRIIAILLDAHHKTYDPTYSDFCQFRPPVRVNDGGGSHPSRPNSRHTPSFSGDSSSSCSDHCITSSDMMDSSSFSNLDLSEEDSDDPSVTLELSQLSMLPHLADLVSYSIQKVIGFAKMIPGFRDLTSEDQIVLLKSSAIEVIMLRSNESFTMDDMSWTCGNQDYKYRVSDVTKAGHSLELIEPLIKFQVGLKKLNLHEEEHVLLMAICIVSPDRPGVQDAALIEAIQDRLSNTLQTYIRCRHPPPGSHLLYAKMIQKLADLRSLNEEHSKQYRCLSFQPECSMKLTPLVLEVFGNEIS
# [3] = molecular target: T2, Xenopus laevis BXRα (Xenopus laevis, UniProt Q91839); experiment: GAL4-LBD luciferase reporter transactivation, HepG2-NTCP cells; format: cell-based; conditions: concentration-response curve; normalized to […] n-butyl-p-aminobenzoate
# T2 construct: gene nr1i2.L; LBD only, fused to GAL4 (tk-UAS-Luc reporter), transfected in HepG2-NTCP cells
# T2 sequence (Q91839 141-386 limits assumed): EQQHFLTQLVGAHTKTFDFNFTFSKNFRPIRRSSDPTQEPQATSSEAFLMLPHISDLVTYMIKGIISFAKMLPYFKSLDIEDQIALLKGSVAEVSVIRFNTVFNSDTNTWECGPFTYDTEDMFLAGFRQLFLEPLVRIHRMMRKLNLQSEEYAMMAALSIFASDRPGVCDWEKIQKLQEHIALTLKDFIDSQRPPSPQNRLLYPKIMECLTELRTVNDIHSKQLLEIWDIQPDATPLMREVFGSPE
# [4] = molecular target: T3, zebrafish PXR (Danio rerio, UniProt A5WYG8); experiment: as above; format: cell-based; conditions: concentration-response curve; normalized to […]α-androstan-3α-ol
# T3 construct: gene nr1i2; LBD only, fused to GAL4 (tk-UAS-Luc reporter), transfected in HepG2-NTCP cells
# T3 sequence (A5WYG8 144-430 limits assumed): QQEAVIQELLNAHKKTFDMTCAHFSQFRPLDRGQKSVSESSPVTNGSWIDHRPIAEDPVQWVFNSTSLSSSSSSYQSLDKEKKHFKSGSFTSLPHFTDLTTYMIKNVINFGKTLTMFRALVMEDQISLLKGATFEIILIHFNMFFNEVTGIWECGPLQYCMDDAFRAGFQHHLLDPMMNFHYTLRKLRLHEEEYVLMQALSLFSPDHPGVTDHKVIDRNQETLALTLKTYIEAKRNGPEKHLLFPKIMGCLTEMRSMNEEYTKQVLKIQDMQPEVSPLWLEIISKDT
efficacy relative to calcitriol [2] [%],Structure (SMILES),"luciferase reporter transactivation, HepG2-NTCP cells [1]","GAL4-LBD luciferase reporter transactivation, HepG2-NTCP cells [3]","GAL4-LBD luciferase reporter transactivation, HepG2-NTCP cells [4]","luciferase reporter transactivation, HepG2-NTCP cells ([1]; OATP co-transfected)"
15,C[C@H](CCC(=O)O)[C@H]1CC[C@H]2[C@@H]3CC[C@@H]4CC(=O)CC[C@]4(C)[C@H]3CC[C@]12C [3-ketolithocholic acid],"the early bile salts petromyzonol sulfate and scymnol sulfate, 3-ketolithocholic acid, and the benzoate analog",–,–,–
–,CCCOC(=O)c1ccc(O)cc1 [n-propyl-p-hydroxybenzoate],"the early bile salts petromyzonol sulfate and scymnol sulfate, 3-ketolithocholic acid, and the benzoate analog","n-propyl-p-hydroxybenzoate, which activates BXRα and BXRβ robustly","zebrafish PXR is activated by pregnenolone, scymnol sulfate, and the benzoate analog",–
–,C[C@H](CCCOS(=O)(=O)O)[C@H]1CC[C@H]2[C@@H]3[C@H](O)C[C@H]4C[C@H](O)CC[C@]4(C)[C@H]3C[C@H](O)[C@]12C [petromyzonol sulfate],–,–,–,"the early bile salts petromyzonol sulfate and scymnol sulfate, 3-ketolithocholic acid, and the benzoate analog"
–,CC(=O)[C@H]1CC[C@H]2[C@@H]3CC=C4C[C@@H](O)CC[C@]4(C)[C@H]3CC[C@]12C [pregnenolone],Human PXR is activated by micromolar concentrations of the steroid pregenonolone,–,"zebrafish PXR is activated by pregnenolone, scymnol sulfate, and the benzoate analog",–
